Experimental data from patent US10723706B2, “Perk inhibitors and uses thereof in treating diseases associated with aggregation-prone proteins” (Ramot at Tel-Aviv University Ltd., priority 2016, dated 2020).

Experiments:
RIPK1 = molecular target: T1, RIPK1 (Homo sapiens, UniProt Q13546); details: Rojas-Rivera et al. 2017; cited from earlier work
T1 sequence (Q13546 1-671): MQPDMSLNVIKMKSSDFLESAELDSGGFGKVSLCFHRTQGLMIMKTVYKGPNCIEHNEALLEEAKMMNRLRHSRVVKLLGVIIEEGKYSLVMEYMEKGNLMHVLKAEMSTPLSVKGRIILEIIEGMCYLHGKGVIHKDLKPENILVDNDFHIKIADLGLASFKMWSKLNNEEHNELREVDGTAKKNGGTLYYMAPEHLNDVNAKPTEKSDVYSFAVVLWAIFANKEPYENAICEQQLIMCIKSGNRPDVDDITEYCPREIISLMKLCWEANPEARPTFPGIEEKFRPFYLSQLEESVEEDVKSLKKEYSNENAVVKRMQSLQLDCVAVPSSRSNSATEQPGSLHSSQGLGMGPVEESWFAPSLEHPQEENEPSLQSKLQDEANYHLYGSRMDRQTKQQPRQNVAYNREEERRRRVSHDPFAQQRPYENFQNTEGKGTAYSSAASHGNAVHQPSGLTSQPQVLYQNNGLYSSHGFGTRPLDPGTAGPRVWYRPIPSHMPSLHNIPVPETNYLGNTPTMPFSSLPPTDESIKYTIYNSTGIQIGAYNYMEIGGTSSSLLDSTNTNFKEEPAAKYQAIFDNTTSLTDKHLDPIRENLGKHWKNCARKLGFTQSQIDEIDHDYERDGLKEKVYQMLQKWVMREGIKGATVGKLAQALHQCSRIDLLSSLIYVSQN

[1] = tested on: betaTC-tet pancreatic islet beta-cell line; experiment: Toxicity in pancreatic beta cells; assay type: cell-based, mouse; details: betaTC-tet cells, tested concentration range up to 500 nm
Protocol: MK-28 toxicity was tested in pancreatic beta cells, the type of cell that is most sensitive when ER stress response pathways are affected. A conditionally transformed mouse pancreatic islet beta-cell line (betaTC-tet), such as described by Efrat [Ann NY Acad Sci 1999, 875:286-293], was used. These cells produce high amounts of insulin, resulting in a high protein load in the ER, making them very sensitive to ER stress and other stimuli, such as cytokine effects. Compromising any of the UPR branches leads to cytotoxicity in these cells. MK-28 was compared to the ER stressor tunicamycin (Tun).

STHdhQ111/111 cells = experiment: Rescue from UPR-induced cell death (tunicamycin), PI cell cycle FACS, sub-G0/G1 fraction; assay type: cell-based; details: Tun for 48 hours
Protocol: (§1) STHdhQ7/7 and STHdhQ111/111 cells were grown as described in Leitman et al. [PLoS One 2014, 9(3):e90803].
After the indicated treatment times in full medium or in DMEM without serum, cells were incubated with propidium iodide (PI) solution ([…]) and read by flow cytometry as described in Leitman et al. [PLoS One 2014, 9(3):e90803]. Cells in sub-G0/G1 were counted as apoptotic/dead cells.
The activity of the novel inhibitors, compared to A4, in preventing cytotoxicity induced by pathogenic Htt, was then tested. A stable murine striatal cell line expressing full-length polyQ-expanded Htt, STHdhQ^111/111, was used.

PERK (eIF2αK3) = molecular target: T2, PERK (eIF2αK3) (Mus musculus, UniProt Q9Z2B5); experiment: ER stress-mediated eIF2α phosphorylation in tunicamycin-treated striatal cells (immunoblotting); assay type: cell-based, murine; details: STHdhQ7/7 cells, Tun 5 μg/ml for 48 hours; A4 50 μM, PKRi 1 μM
T2 construct: endogenous in cells; host or cells: STHdhQ7/7 murine striatal cells
T2 sequence (Q9Z2B5 29-1114): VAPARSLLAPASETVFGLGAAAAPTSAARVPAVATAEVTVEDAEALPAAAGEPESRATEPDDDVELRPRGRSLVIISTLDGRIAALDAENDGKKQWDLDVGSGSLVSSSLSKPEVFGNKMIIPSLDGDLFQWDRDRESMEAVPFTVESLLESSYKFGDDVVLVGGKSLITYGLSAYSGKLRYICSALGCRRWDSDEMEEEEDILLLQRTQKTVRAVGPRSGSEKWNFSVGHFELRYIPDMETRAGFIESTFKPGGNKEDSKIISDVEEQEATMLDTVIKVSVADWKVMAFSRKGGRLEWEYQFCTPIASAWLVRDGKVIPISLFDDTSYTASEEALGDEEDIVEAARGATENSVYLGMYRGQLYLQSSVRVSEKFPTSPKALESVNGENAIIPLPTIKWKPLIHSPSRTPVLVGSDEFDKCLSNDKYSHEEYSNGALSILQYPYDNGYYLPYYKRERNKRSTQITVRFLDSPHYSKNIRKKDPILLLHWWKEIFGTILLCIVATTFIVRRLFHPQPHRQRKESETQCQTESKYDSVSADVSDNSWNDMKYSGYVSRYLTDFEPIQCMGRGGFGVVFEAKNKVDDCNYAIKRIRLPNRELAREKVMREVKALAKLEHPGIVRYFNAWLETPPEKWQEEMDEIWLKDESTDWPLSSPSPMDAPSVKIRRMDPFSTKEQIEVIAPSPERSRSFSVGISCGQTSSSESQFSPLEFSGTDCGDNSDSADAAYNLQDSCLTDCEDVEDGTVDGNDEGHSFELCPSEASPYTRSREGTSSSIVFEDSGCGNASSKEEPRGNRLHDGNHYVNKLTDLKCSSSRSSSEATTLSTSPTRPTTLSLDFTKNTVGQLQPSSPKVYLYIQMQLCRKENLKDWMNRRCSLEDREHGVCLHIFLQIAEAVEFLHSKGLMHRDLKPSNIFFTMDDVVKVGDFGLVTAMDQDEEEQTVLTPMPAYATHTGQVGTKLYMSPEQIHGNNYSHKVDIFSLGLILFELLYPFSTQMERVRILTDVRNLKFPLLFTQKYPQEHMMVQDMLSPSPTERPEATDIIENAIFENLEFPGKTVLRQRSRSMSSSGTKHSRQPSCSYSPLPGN
Protocol: as §1
(§2) Cells were treated with Tun ([…]) or with A4, PKRi, poly-I:C or exemplary PERK inhibitors of the present embodiments, by adding the tested compound to the cell medium at the indicated concentrations and times. Cell lysis and immunoblotting was performed as described in Leitman et al. [PLoS One 2014, 9(3):e90803].
As the activity of PERK was particularly affected in the Huntington's disease (HD) models [Leitman et al., PLoS One 2014, 9(3):e90803], the therapeutic capacity of a PERK inhibitor named A4 [Wang et al., Chem Biol Drug Des 2010, 76:480-495] was tested in cells expressing polyQ-expanded Htt, as depicted in Background art FIG. 1.

PKR (eIF2αK2) = molecular target: T3, PKR (eIF2αK2) (Mus musculus, UniProt Q03963); experiment: PKR activity induced with poly-I:C in cells; assay type: cell-based
T3 construct: endogenous in cells
T3 sequence (Q03963 1-515): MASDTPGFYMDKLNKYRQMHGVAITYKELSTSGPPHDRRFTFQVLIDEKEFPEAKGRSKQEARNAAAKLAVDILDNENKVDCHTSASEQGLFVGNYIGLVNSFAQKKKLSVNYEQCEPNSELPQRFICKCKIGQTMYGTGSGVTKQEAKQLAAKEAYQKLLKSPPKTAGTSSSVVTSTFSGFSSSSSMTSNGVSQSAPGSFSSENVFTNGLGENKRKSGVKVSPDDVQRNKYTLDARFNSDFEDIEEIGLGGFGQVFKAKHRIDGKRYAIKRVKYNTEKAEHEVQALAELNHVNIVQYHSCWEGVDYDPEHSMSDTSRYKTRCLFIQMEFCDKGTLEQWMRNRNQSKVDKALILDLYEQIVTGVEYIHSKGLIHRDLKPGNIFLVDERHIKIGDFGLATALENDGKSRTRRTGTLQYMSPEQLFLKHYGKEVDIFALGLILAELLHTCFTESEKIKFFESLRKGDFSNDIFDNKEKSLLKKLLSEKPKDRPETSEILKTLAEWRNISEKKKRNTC
Protocol: as §2

cells = experiment: Intrinsic cytotoxicity on cells; assay type: cell-based

## Cc1cccc(CC(=O)N2CCc3c2ccc(-c2cn(C)c4ncnc(N)c24)c3F)n1 [GSK2656157]
RIPK1
  inhibition of RIPK1: potent inhibitors of RIPK1

## Cn1cc(-c2ccc3c(c2)CCN3C(=O)Cc2cccc(C(F)(F)F)c2)c2c(N)ncnc21 [GSK2606414]
RIPK1
  inhibition of RIPK1: potent inhibitors of RIPK1

## Tunicamycin [reference compound]
[1]
  toxicity in pancreatic beta cells: toxic

## O=C1Nc2ccc3ncsc3c2/C1=C/c1cnc[nH]1 [PKRi, reference compound]
STHdhQ111/111 cells
  rescue from UPR-induced cell death (cytotoxicity): had no effect
STHdhQ111/111 cells; listed as PKR inhibitor
  rescue from UPR-induced cell death (cytotoxicity): no effect
PERK (eIF2αK3)
  inhibition of ER stress-mediated eIF2α phosphorylation: not by PKRi
PKR (eIF2αK2)
  inhibition of PKR activity: inhibited

## COc1cc(/C=N\N(C)c2nc(-c3ccccc3)cc(-c3ccccc3)n2)ccc1O [Compound 1, 2-{N-methyl-N′-(3-methoxy-4-hydroxybenzylidene)hydrazinyl}-4,6-diphenylpyrimidine]
STHdhQ111/111 cells
  rescue from UPR-induced cell death (cytotoxicity): more potent than A4
cells
  intrinsic cytotoxicity on cells: neither MPGL1 nor MK-28 exhibited intrinsic cytotoxicity
